Laboratory results as given in patent US20210284621A1 (priority 2018, published 2021).

What was measured:
CB2 receptor [1] = target: T1, CB2 receptor (Homo sapiens, UniProt P34972); test: cAMP Assay #2: Hit Hunter cAMP assay, Gi-coupled agonist activity, CB2; assay type: cell-based; set-up: host or cells: cAMP Hunter cell lines; details: for CB2 fold selectivity: Hit Hunter cAMP, CB1 EC50 / CB2 EC50
Protocol: (§1) Compounds of the invention were assayed in the Hit Hunter® cAMP assay to determine Gi-coupled agonist activity on the CB1 and CB2 receptors, the results of which are provided in Table 5.
(§2) The Hit Hunter® cAMP assay monitors the activation of a GPCR via Gi and […] secondary messenger signaling in a homogenous, non-imaging assay format using a technology developed by DiscoverX called Enzyme Fragment Complementation (EFC) with β-galactosidase (β-Gal) as the functional reporter. […] ED is fused to cAMP and in the assay competes with cAMP generated by cells for binding to a cAMP-specific antibody. Active β-Gal is formed by complementation of exogenous EA to any unbound ED cAMP. Active enzymes can then convert a chemiluminescent substrate, generating an output signal detectable on a standard microplate reader.
(§3) cAMP Hunter cell lines were expanded from freezer stocks according to standard procedures. Cells were seeded in a total volume of 20 μL into white walled, 384-well microplates and incubated at 37° C. for the appropriate time prior to testing. cAMP modulation was determined using the DiscoverX Hit Hunter cAMP XS+ assay. For Gi agonist activity determination, cells were incubated with sample in the presence of EC80 forskolin to induce response (20 μM and 25 μM in the CB1 and CB2 assays, respectively). Media was aspirated from cells and replaced with 15 μL 2:1 HBSS/10 mM HEPES:cAMP XS+Ab reagent.
(§4) Intermediate dilution of sample stocks was performed to generate 4× sample in assay buffer. 5 μL of 4× compound was added to cells and incubated at 37° C. or room temperature for 30 or 60 minutes. Final vehicle concentration was 1%. Assay signal was generated through incubation with 20 μL cAMP XS+ED/CL lysis cocktail for one hour at room temperature. Microplates were read following signal generation with a PerkinElmer Envision™ instrument for chemiluminescent signal detection. Compound activity was analyzed using CBIS data analysis suite (Chem Innovation, CA). For agonist assays, percentage activity was calculated using the following formula: % Activity=100%×(1−(mean RLU of test sample−mean RLU of Max control ligand)/(mean RLU of vehicle control−mean RLU of Max control ligand). Control ligand was the non-selective CB1/CB2 agonist CP55,940.

CB2 receptor [2] = target: T1, CB2 receptor; test: CB2 competitive radioligand binding assay ([3H] WIN-55,212-2); set-up: expressed in transfected cells; host or cells: CHO-K1 cells; details: for Fold Selectivity (CB1/CB2): Table 3, ratio of Ki CB1/CB2
Method in brief: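 Single-concentration displacement: 2.4 nM [3H]WIN-55,212-2 competed with 0.05 μM compound (1% DMSO) for 90 min at 37 °C on human CB2 expressed in CHO-K1 cells (HEPES 20 mM, pH 7.0, 0.5% BSA). Result given as % inhibition of bound radioligand.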

LPS-induced PBMCs = test: Inflammatory cytokine release from LPS-induced PBMCs (Luminex); assay type: cell-based, human; details: fold change from LPS-treated PBMCs, compounds 10 μM (DEX 1 μg/ml) 2 h, then LPS 0.1 μg/ml 24 h, negative = reduced; for IL-12 (p70) / L-31: OOR = out of standard curve range
Protocol: Compounds of the invention were assayed for their effect on inflammatory cytokine release from lipopolysaccharides (LPS)-induced PBMCs, isolated from a human blood sample, the results of which are provided in Table 7 as fold change. Exemplary methods for quantifying secretion of inflammatory cytokines in PBMCs are known in the art, for example, as described in Hailer et al., Infection and Immunity. 68(2):752-759 (2000); and Merlini et al., Frontiers in Immunology. 7:614 (2016); each of which is incorporated herein by reference with respect to methods for evaluating cytokine release in PBMCs.
In brief, human blood samples from healthy volunteers were collected and PBMCs were isolated. PBMCs were cultured and each compound was assayed in triplicate at a final concentration of 10 μM for 2 hours. 1 μg/ml dexamethasone (DEX) served as a positive control. LPS was added at a final concentration of 0.1 μg/ml and further incubated for 24 hours. At the end of the incubation, the supernatants were collected and the levels of a panel of secreted cytokines were measured by a Human Magnetic Luminex® assay (R&D). The results in Table 7 are presented as a fold change from LPS-treated PBMCs. Reduced levels are expressed by negative values. OOR denotes values that are out of the standard curve range for the specific cytokine and thus, could not be accurately measured. Cytotoxicity was also determined. Compounds with cytotoxicity ≥50% was considered cytotoxic. Baseline cytotoxicity of untreated PBMCs was 17% and all compounds presented in Table 7 induced cytotoxicity below 25%.

CB1 receptor [3] = target: T2, CB1 receptor (Homo sapiens, UniProt P21554); test: cell-based; set-up: host or cells: PathHunter cell lines
Protocol: (§5) The PathHunter® β-Arrestin assay monitors the activation of a GPCR in a homogenous, non-imaging assay format using a technology developed by DiscoverX called Enzyme Fragment Complementation (EFC) with β-galactosidase (3-Gal) as the functional reporter. […] EA is fused to β-Arrestin and PK is fused to the GPCR of interest.
(§6) PathHunter cell lines were expanded from freezer stocks according to standard procedures. Cells were seeded in a total volume of 20 μL into white walled, 384-well microplates and incubated at 37° C. for the appropriate time prior to testing. For agonist activity determination, cells were incubated with sample to induce response. Intermediate dilution of sample stocks was performed to generate 5× sample in assay buffer. 5 μL of 5× sample was added to cells and incubated at 37° C. or room temperature for 90 to 180 minutes. Vehicle concentration was 1%. Assay signal was generated through a single addition of 12.5 or 15 μL (50% v/v) of PathHunter Detection reagent cocktail, followed by a one hour incubation at room temperature. Microplates were read following signal generation with a PerkinElmer Envision™ instrument for chemiluminescent signal detection. Compound activity was analyzed using CBIS data analysis suite (ChemInnovation, CA). For agonist assays, percentage activity was calculated using the following formula: % Activity=100%×(mean RLU of test sample− mean RLU of vehicle control)/(mean MAX control ligand− mean RLU of vehicle control).

CB1 receptor [4] = target: T2, CB1 receptor; test: CB1 competitive radioligand binding assay ([3H] SR141716A); set-up: expressed in transfected cells; host or cells: Chem-1 cells
Method in brief: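 Chem-1 cells expressing human recombinant CB1 incubated 90 min at 37° C with 2.0 nM [3H]SR141716A and compound at 0.5 μM (1% DMSO) in HEPES pH 7.4 buffer with MgCl2, CaCl2, 0.2% BSA. Read-out is % inhibition of radioligand binding.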

CB1 receptor [5] = target: T2, CB1 receptor; test: cAMP Assay #2: Hit Hunter cAMP assay, Gi-coupled agonist activity, CB1; assay type: cell-based; set-up: host or cells: PathHunter cell lines
Protocol: as §1, §2, §3, §4

CB2 receptor [6] = target: T1, CB2 receptor; test: cell-based; set-up: host or cells: cAMP Hunter cell lines
Protocol: as §5, §6

[7] = PathHunter agonist mode, read-out: CB2 Activity (β-Arrestin)
[8] = PathHunter agonist mode, read-out: CB1 Activity (β-Arrestin)

T1 sequence (P34972 whole entry): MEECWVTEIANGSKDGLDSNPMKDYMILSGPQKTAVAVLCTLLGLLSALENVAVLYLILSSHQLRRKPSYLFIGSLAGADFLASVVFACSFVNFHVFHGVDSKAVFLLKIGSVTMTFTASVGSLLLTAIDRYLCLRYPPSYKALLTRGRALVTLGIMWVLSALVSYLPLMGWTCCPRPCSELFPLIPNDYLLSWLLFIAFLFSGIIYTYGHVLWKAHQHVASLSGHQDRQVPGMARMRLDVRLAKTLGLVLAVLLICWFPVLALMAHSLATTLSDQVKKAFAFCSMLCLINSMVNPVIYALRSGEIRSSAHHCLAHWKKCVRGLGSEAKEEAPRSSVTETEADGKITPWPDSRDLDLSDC
T2 sequence (P21554 whole entry, the tested form may be a part): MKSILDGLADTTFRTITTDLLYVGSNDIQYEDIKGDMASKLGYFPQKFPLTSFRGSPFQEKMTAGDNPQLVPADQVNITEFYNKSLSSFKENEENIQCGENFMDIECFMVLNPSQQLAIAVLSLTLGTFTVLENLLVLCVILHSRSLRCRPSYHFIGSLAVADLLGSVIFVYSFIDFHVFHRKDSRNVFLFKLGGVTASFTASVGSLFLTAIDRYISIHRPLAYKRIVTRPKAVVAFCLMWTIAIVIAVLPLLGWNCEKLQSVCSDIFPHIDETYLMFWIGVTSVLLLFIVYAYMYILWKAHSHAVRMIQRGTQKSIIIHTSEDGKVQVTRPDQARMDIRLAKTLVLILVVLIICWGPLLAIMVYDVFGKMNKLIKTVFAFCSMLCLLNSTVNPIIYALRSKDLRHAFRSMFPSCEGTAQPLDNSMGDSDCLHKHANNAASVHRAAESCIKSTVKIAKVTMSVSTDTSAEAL

For `CCCCCCC(C)(C)c1cc(O)c2c(c1)OC(C)(C)[C@@H]1CC=C(C(=O)NC3CC(F)(F)C3)C[C@@H]21` [Compound 89, (6aR,10aR)-N-(3,3-difluorocyclobutyl)-1-hydroxy-6,6-dimethyl-3-(2-methyloctan-2-yl)-6a,7,10,10a-tetrahydro-6H-benzo[c]chromene-9-carboxamide], the EC50 (CB2 receptor [1]) was 0.0013 µM, the CB2 fold selectivity (CB2 receptor [1]) was 34.6 and the Ki (CB2 receptor [2]) was 0.0043 µM. The “Fold Selectivity (CB1/CB2)” value (CB2 receptor [2]) was 14.4, the IL17A (LPS-induced PBMCs) was −14.0 fold change and the IL-1β (LPS-induced PBMCs) was −4.8 fold change. The IL-4 (LPS-induced PBMCs) was −3.8 fold change, the IL-6 (LPS-induced PBMCs) was −237.0 fold change and the IL-8 (LPS-induced PBMCs) was −4.2 fold change. The IL-10 (LPS-induced PBMCs) was −960.1 fold change, the MCP-1 (LPS-induced PBMCs) was −143.8 fold change and the TNFα (LPS-induced PBMCs) was −35.6 fold change. It also gave an EC50 (CB1 receptor [3]) of 0.033 µM, a Ki (CB1 receptor [4]) of 0.062 µM and an EC50 (CB1 receptor [5]) of 0.0436 µM. The EC50 (CB2 receptor [6]; [7]) was 0.0019 µM.
For `CCCCC(C)(C)c1cc(O)c2c(c1)OC(C)(C)[C@@H]1CC=C(C(=O)O)C[C@@H]21` [Compound 109], the EC50 (CB2 receptor [1]) was 0.148 µM, the CB2 fold selectivity (CB2 receptor [1]) was 8.3 and the Ki (CB2 receptor [2]) was > 3 µM. It also gave an IL17A (LPS-induced PBMCs) of 1.2 fold change, an IL-1β (LPS-induced PBMCs) of −3.3 fold change and an IL-4 (LPS-induced PBMCs) of −1.5 fold change. The IL-6 (LPS-induced PBMCs) was −1.4 fold change, the IL-8 (LPS-induced PBMCs) was −1.0 fold change and the IL-10 (LPS-induced PBMCs) was −1.3 fold change. For the same compound, the MCP-1 (LPS-induced PBMCs) was −5.0 fold change, the TNFα (LPS-induced PBMCs) was −1.3 fold change and the “IL-12 (p70)” value (LPS-induced PBMCs) was −1.6 fold change. The L-31 (LPS-induced PBMCs) was −1.5 fold change, the EC50 (CB1 receptor [3]; [8]) was > 3 µM and the Ki (CB1 receptor [4]) was > 3 µM. For the same compound, the EC50 (CB1 receptor [5]) was 1.22 µM and the EC50 (CB2 receptor [6]; [7]) was 0.0581 µM.
For `CCCC(C)(C)c1cc(O)c2c(c1)OC(C)(C)[C@@H]1CC=C(C(=O)O)C[C@@H]21` [Compound 110, (6aR,10aR)-1-hydroxy-6,6-dimethyl-3-(2-methylpentan-2-yl)-6a,7,10,10a-tetrahydro-6H-benzo[c]chromene-9-carboxylic acid], the EC50 (CB2 receptor [1]) was 0.211 µM, the CB2 fold selectivity (CB2 receptor [1]) was >14 and the Ki (CB2 receptor [2]) was > 3 µM. The IL17A (LPS-induced PBMCs) was 1.3 fold change, the IL-1β (LPS-induced PBMCs) was −1.5 fold change and the IL-4 (LPS-induced PBMCs) was −1.3 fold change. For the same compound, the IL-6 (LPS-induced PBMCs) was −1.2 fold change, the IL-8 (LPS-induced PBMCs) was −1.0 fold change and the IL-10 (LPS-induced PBMCs) was −1.0 fold change. The MCP-1 (LPS-induced PBMCs) was −3.0 fold change, the TNFα (LPS-induced PBMCs) was −1.0 fold change and the “IL-12 (p70)” value (LPS-induced PBMCs) was −1.1 fold change. The L-31 (LPS-induced PBMCs) was −1.3 fold change, the EC50 (CB1 receptor [3]; [8]) was > 3 µM and the Ki (CB1 receptor [4]) was > 3 µM. For the same compound, the EC50 (CB1 receptor [5]) was > 3 µM and the EC50 (CB2 receptor [6]) was 0.0374 µM.
`CCCCCCC(C)(C)c1cc(O)c2c(c1)OC(C)(C)[C@@H]1CC=C(C(=O)NC3(C(F)(F)F)CC3)C[C@@H]21` [Compound 99, (6aR,10aR)-1-hydroxy-N-(1-trifluoromethyl-cyclopropyl)-6,6-dimethyl-3-(2-methyloctan-2-yl)-6a,7,10,10a-tetrahydro-6H-benzo[c]chromene-9-carboxamide] showed an EC50 (CB2 receptor [1]) of 0.0013 µM, a CB2 fold selectivity (CB2 receptor [1]) of 14.9 and a Ki (CB2 receptor [2]) of 0.002 µM. For the same compound, the “Fold Selectivity (CB1/CB2)” value (CB2 receptor [2]) was 4.5, the IL17A (LPS-induced PBMCs) was 1.2 fold change and the IL-1β (LPS-induced PBMCs) was 1.2 fold change. It also gave an IL-4 (LPS-induced PBMCs) of −1.4 fold change, an IL-6 (LPS-induced PBMCs) of −2.6 fold change and an IL-8 (LPS-induced PBMCs) of −1.0 fold change. The IL-10 (LPS-induced PBMCs) was −7.0 fold change, the MCP-1 (LPS-induced PBMCs) was −3.3 fold change and the TNFα (LPS-induced PBMCs) was −1.4 fold change. The “IL-12 (p70)” value (LPS-induced PBMCs) was −1.6 fold change, the L-31 (LPS-induced PBMCs) was −1.1 fold change and the EC50 (CB1 receptor [3]) was 0.0325 µM. The Ki (CB1 receptor [4]) was 0.0089 µM, the EC50 (CB1 receptor [5]) was 0.0191 µM and the EC50 (CB2 receptor [6]; [7]) was 0.0012 µM.
